The record followed here is patent US20240317718A1, “SUBSTITUTED HETEROCYCLIC COMPOUNDS” (BRISTOL-MYERS SQUIBB COMPANY, priority 2021, published 2024).

Data set [1] concerns IFNα-induced pSTAT5 (Tyk2-mediated signal transduction). In words: IFNα-induced STAT phosphorylation in human whole blood. It counts as cell-based. Conditions: 1 h incubation with compound, 1000 U/mL IFNα A/D for 15 min, CD3 positive population, read-out: Human Whole blood IFNa pSTAT5 IC50. As for the experimental part:
IFNα-Induced STAT Phosphorylation in Human Whole Blood
After an hour long incubation with compound, human whole blood (drawn with ACD-A as anticoagulant) was stimulated with 1000 U/mL recombinant human IFNα A/D (R&D Systems 11200-2) for 15 min. The stimulation was stopped by adding Fix/Lyse buffer (BD 558049). Cells were stained with a CD3 FITC antibody (BD 555916), washed, and permeabilized on ice using Perm III buffer (BD 558050). Cells were then stained with an Alexa-Fluor 647 pSTAT5 (pY694) antibody (BD 612599) for 60 min prior to analysis on the iQue Plus. The amount of pSTAT5 expression was quantitated by median fluorescence intensity after gating on the CD3 positive population.

A further data set in a line: in vitro. Conditions: human, Caco-2, pH 7.4.

In general, IC50 refers to the concentration at which inhibition is half-maximal. In general, Papp A→B refers to the apparent permeability from the apical to the basolateral side of a cell layer. Read a low Papp A→B as poor permeation. What is called efflux ratio is a quotient of directional permeabilities that is used to spot active efflux. Take `[2H]C([2H])([2H])NC(=O)c1nnc(NC(=O)C2CC2)cc1Nc1cccc(-c2noc(CF)n2)c1OC` [Example 1, 6-(cyclopropanecarboxamido)-4-((3-(5-(fluoromethyl)-1,2,4-oxadiazol-3-yl)-2-methoxyphenyl)amino)-N-(methyl-d3)pyridazine-3-carboxamide]: the IC50 in data set [1] amounted to 34 nM. In addition, in the data set “in vitro”, the apical-to-basolateral permeability (Papp A→B) at 2 h, 3 μM is 65 ×10⁻⁶ cm/s and the efflux ratio at 2 h, 3 μM is 0.5.
On the same counts, the results for `[2H]C([2H])([2H])NC(=O)c1nnc(NC(=O)C2CC2)cc1Nc1cccc(-c2csc(C)n2)c1OC` [Example 21, 6-cyclopropaneamido-4-{[2-methoxy-3-(2-methyl-1,3-thiazol-4-yl)phenyl]amino}-N-(^2H3)methylpyridazine-3-carboxamide] are 385 nM, 14.1 ×10⁻⁶ cm/s and 0.7.
Consider `[2H]C([2H])([2H])NC(=O)c1nnc(NC(=O)C2CC2)cc1Nc1cccc(-c2cnc(OC)cn2)c1OC` [Example 22, 6-cyclopropaneamido-4-{[2-methoxy-3-(5-methoxypyrazin-2-yl)phenyl]amino}-N-(^2H3)methylpyridazine-3-carboxamide], for which the IC50 in data set [1] stood at 410 nM. Besides, in “in vitro”, the Papp A→B at 2 h, 3 μM was determined as 32.3 ×10⁻⁶ cm/s and the efflux ratio at 2 h, 3 μM was 0.6.
Regarding `[2H]C([2H])([2H])NC(=O)c1nnc(NC(=O)C2CC2)cc1Nc1cccc(-c2cnsc2)c1OC` [Example 36, 6-cyclopropaneamido-4-{[2-methoxy-3-(1,2-thiazol-4-yl)phenyl]amino}-N-(^2H3)methylpyridazine-3-carboxamide], in data set [1], the IC50 worked out at 225 nM. In addition, in the data set “in vitro”, the Papp A→B at 2 h, 3 μM is 20.3 ×10⁻⁶ cm/s and the efflux ratio at 2 h, 3 μM worked out at 0.9.
On the same counts, the results for `[2H]C([2H])([2H])NC(=O)c1nnc(NC(=O)C2CC2)cc1Nc1cccc(-c2cnn(C3CC3)c2)c1OC` [Example 28, 6-cyclopropaneamido-4-{[3-(1-cyclopropyl-1H-pyrazol-4-yl)-2-methoxyphenyl]amino}-N-(^2H3)methylpyridazine-3-carboxamide] are 425 nM, 27.4 ×10⁻⁶ cm/s and 0.7.
On the same counts, the results for `[2H]C([2H])([2H])NC(=O)c1nnc(NC(=O)C2CC2)cc1Nc1nccc(-c2cnn(C3CC3)c2)c1OC` [Example 30, 6-cyclopropaneamido-4-{[4-(1-cyclopropyl-1H-pyrazol-4-yl)-3-methoxypyridin-2-yl]amino}-N-(^2H3)methylpyridazine-3-carboxamide] are 193 nM, 22.7 ×10⁻⁶ cm/s and 0.5.
Taken in the same sequence, the figures for `[2H]C([2H])([2H])NC(=O)c1nnc(NC(=O)C2CC2)cc1Nc1cc(F)cc(-c2cocn2)c1OC` [Example 37, 6-cyclopropaneamido-4-{[5-fluoro-2-methoxy-3-(1,3-oxazol-4-yl)phenyl]amino}-N-(^2H3)methylpyridazine-3-carboxamide] were 84 nM, 35.4 ×10⁻⁶ cm/s and 0.4.
Regarding `[2H]C([2H])([2H])NC(=O)c1nnc(NC(=O)C2CC2)cc1Nc1cccc(-c2coc(C)n2)c1OC` [Example 17, 6-(cyclopropanecarboxamido)-4-((2-methoxy-3-(2-methyloxazol-4-yl)phenyl)amino)-N-(methyl-d3)pyridazine-3-carboxamide], the IC50 in data set [1] was determined as 63 nM. In the data set “in vitro”, the Papp A→B at 2 h, 3 μM was 47.4 ×10⁻⁶ cm/s and the efflux ratio at 2 h, 3 μM was 0.4.
Regarding `[2H]C([2H])([2H])NC(=O)c1nnc(NC(=O)C2CC2)cc1Nc1cccc(-c2cnc(C)cn2)c1OC` [Example 23, 6-cyclopropaneamido-4-{[2-methoxy-3-(5-methylpyrazin-2-yl)phenyl]amino}-N-(^2H3)methylpyridazine-3-carboxamide], in data set [1], the IC50 is 243 nM. Moreover, in the data set “in vitro”, the Papp A→B at 2 h, 3 μM amounted to 17.4 ×10⁻⁶ cm/s and the efflux ratio at 2 h, 3 μM is 1.4.
Taken in the same sequence, the figures for `[2H]C([2H])([2H])NC(=O)c1nnc(NC(=O)C2CC2)cc1Nc1cccc(-c2cocn2)c1OC` [Example 6, 6-(cyclopropanecarboxamido)-4-((2-methoxy-3-(oxazol-4-yl)phenyl)amino)-N-(methyl-d3)pyridazine-3-carboxamide] were 42 nM, 78.5 ×10⁻⁶ cm/s and 0.5.
On the same counts, the results for `[2H]C([2H])([2H])NC(=O)c1nnc(NC(=O)C2CC2)cc1Nc1cccc(-c2ccc(C(F)F)cn2)c1OC` [Example 7, 6-(cyclopropanecarboxamido)-4-((3-(5-(difluoromethyl)pyridin-2-yl)-2-methoxyphenyl)amino)-N-(methyl-d3)pyridazine-3-carboxamide] are 431 nM, 31.3 ×10⁻⁶ cm/s and 0.6.
Taken in the same sequence, the figures for `[2H]C([2H])([2H])NC(=O)c1nnc(NC(=O)C2CC2)cc1Nc1cccc(-c2ccns2)c1OC` [Example 34, 6-cyclopropaneamido-4-{[2-methoxy-3-(1,2-thiazol-5-yl)phenyl]amino}-N-(^2H3)methylpyridazine-3-carboxamide] were 474 nM, 23.3 ×10⁻⁶ cm/s and 1.1.
For the compound `[2H]C([2H])([2H])NC(=O)c1nnc(NC(=O)C2CC2)cc1Nc1cccc(-c2noc(COC(C)C)n2)c1OC` [Example 2, 6-(cyclopropanecarboxamido)-4-((3-(5-(isopropoxymethyl)-1,2,4-oxadiazol-3-yl)-2-methoxyphenyl)amino)-N-(methyl-d3)pyridazine-3-carboxamide], in data set [1], the IC50 was determined as 13 nM. Further, in “in vitro”, the Papp A→B at 2 h, 3 μM is 66.1 ×10⁻⁶ cm/s and the efflux ratio at 2 h, 3 μM is 0.3.
Taken in the same sequence, the figures for `[2H]C([2H])([2H])NC(=O)c1nnc(NC(=O)C2CC2)cc1Nc1nccc(-c2cnc(C(C)(C)O)cn2)c1OC` [Example 20, 6-(cyclopropanecarboxamido)-4-((4-(5-(2-hydroxypropan-2-yl)pyrazin-2-yl)-3-methoxypyridin-2-yl)amino)-N-(methyl-d3)pyridazine-3-carboxamide] were 148 nM, 18.8 ×10⁻⁶ cm/s and 2.9.
Taken in the same sequence, the figures for `[2H]C([2H])([2H])NC(=O)c1nnc(NC(=O)C2CC2)cc1Nc1cccc(-c2noc(CC)n2)c1OC` [Example 43, 6-cyclopropaneamido-4-{[3-(5-ethyl-1,2,4-oxadiazol-3-yl)-2-methoxyphenyl]amino}-N-(^2H3)methylpyridazine-3-carboxamide] were 443 nM, 24.2 ×10⁻⁶ cm/s and 0.8.
On the same counts, the results for `[2H]C([2H])([2H])NC(=O)c1nnc(NC(=O)C2CC2)cc1Nc1nccc(-c2cnn(C(F)F)c2)c1OC` [Example 42, 6-cyclopropaneamido-4-({4-[1-(difluoromethyl)-1H-pyrazol-4-yl]-3-methoxypyridin-2-yl}amino)-N-(^2H3)methylpyridazine-3-carboxamide] are 193 nM, 26.6 ×10⁻⁶ cm/s and 0.4.
Consider `[2H]C([2H])([2H])NC(=O)c1nnc(NC(=O)C2CC2)cc1Nc1nccc(-c2ncns2)c1OC` [Example 41, 6-cyclopropaneamido-4-{[3-methoxy-4-(1,2,4-thiadiazol-5-yl)pyridin-2-yl]amino}-N-(^2H3)methylpyridazine-3-carboxamide], for which, in data set [1], the IC50 is 175 nM. Moreover, in the data set “in vitro”, the Papp A→B at 2 h, 3 μM turned out to be 27.7 ×10⁻⁶ cm/s and the efflux ratio at 2 h, 3 μM turned out to be 0.4.
